What all share (assay): microbe, parasite or virus in culture
Common to all, as to format: cell-based, Mycobacterium tuberculosis

Assay [1] relates to Mtb strain resistant to Streptomycin ATCC 35820. As to conditions: for MIC, Mtb strain resistant to Streptomycin ATCC 35820: Table 5; for MIC: Mycobacterium tuberculosis.
Assay [2] concerns Mtb strain resistant to P-aminosalicyclic acid ATCC 35821. As to conditions: for MIC, Mtb strain resistant to P-aminosalicyclic acid ATCC 35821: Table 5; for MIC: Mycobacterium tuberculosis.
Assay [3] concerns Mtb strain resistant to Isoniazid ATCC 35822. The conditions noted are these: for MIC, Mtb strain resistant to Isoniazid ATCC 35822: Table 5; for MIC: Mycobacterium tuberculosis.
For assay [4], the system named is Mtb strain resistant to Kanamycin ATCC 35827. The conditions noted are these: for MIC, Mtb strain resistant to Kanamycin ATCC 35827: Table 5; for MIC: Mycobacterium tuberculosis.
Assay [5] deals with Mtb strain resistant to Ethionamide ATCC 35830. As to conditions: for MIC, Mtb strain resistant to Ethionamide ATCC 35830: Table 5; for MIC: Mycobacterium tuberculosis.
In assay [6] the test system is Mtb strain resistant to Ethambutol ATCC 35837. The conditions noted are these: for MIC, Mtb strain resistant to Ethambutol ATCC 35837: Table 5; for MIC: Mycobacterium tuberculosis.
Setting [7] is: ATCC35820, 168 h, read-out: MIC, Mtb strain resistant to Streptomycin ATCC 35820.
Where [8] appears, read: ATCC35821, read-out: MIC, Mtb strain resistant to P-aminosalicyclic acid ATCC 35821.
The mark [9] stands for this setting: ATCC35822, 168 h, read-out: MIC, Mtb strain resistant to Isoniazid ATCC 35822.
Where [10] appears, read: ATCC35827, 168 h, read-out: MIC, Mtb strain resistant to Kanamycin ATCC 35827.
[11] abbreviates: ATCC35830, read-out: MIC, Mtb strain resistant to Ethionamide ATCC 35830.
[12] abbreviates: ATCC35837, read-out: MIC, Mtb strain resistant to Ethambutol ATCC 35837.
Where [13] appears, read: ATCC35820, read-out: Activity against Mtb strain resistant to Streptomycin ATCC 35820.
The mark [14] stands for this setting: ATCC35821, read-out: Activity against Mtb strain resistant to P-aminosalicyclic acid ATCC 35821.
[15] abbreviates: ATCC35822, read-out: Activity against Mtb strain resistant to Isoniazid ATCC 35822.
The mark [16] stands for this setting: ATCC35827, read-out: Activity against Mtb strain resistant to Kanamycin ATCC 35827.
The mark [17] stands for this setting: ATCC35830, read-out: Activity against Mtb strain resistant to Ethionamide ATCC 35830.
The mark [18] stands for this setting: ATCC35837, read-out: Activity against Mtb strain resistant to Ethambutol ATCC 35837.

Values after ≈ are worked out from the molar mass of the structure shown. Read-outs that look alike come from different tables or passages of the source.

Regarding `CCNc1n[n+]([O-])c2cccc(C)c2[n+]1[O-]` [Compound 15ea, Ethyl-(5-methyl-1,4-dioxy-benzo[1,2,4]triazin-3-yl)-amine], in assay [1], the “MIC, Mtb strain resistant to Streptomycin ATCC 35820” value was 0.16 µg/mL (≈ 0.727 µM). Moreover, the “MIC, Mtb strain resistant to P-aminosalicyclic acid ATCC 35821” value in assay [2] turned out to be 0.31 µg/mL (≈ 1.41 µM). The “MIC, Mtb strain resistant to Isoniazid ATCC 35822” value in assay [3] is 0.62 µg/mL (≈ 2.82 µM). In addition, the “MIC, Mtb strain resistant to Kanamycin ATCC 35827” value in assay [4] is 0.62 µg/mL (≈ 2.82 µM). Also, the “MIC, Mtb strain resistant to Ethionamide ATCC 35830” value in assay [5] was determined as 0.31 µg/mL (≈ 1.41 µM). The “MIC, Mtb strain resistant to Ethambutol ATCC 35837” value in assay [6] came out at 0.62 µg/mL (≈ 2.82 µM).

`CCNc1n[n+]([O-])c2cc3c(cc2[n+]1[O-])CCC3` [Compound 15fa, 3-(ethylamino)-7,8-dihydro-6H-indeno[5,6-e][1,2,4]triazine 1,4-dioxide]: the MIC in assay [1] (setting [7]) turned out to be 0.63 µg/mL (≈ 2.56 µM); in assay [2] (setting [8]), 1.2 µg/mL (≈ 4.87 µM); in assay [3] (setting [9]), 2.5 µg/mL (≈ 10.2 µM); in assay [4] (setting [10]), 1.2 µg/mL (≈ 4.87 µM); in assay [5] (setting [11]), 1.2 µg/mL (≈ 4.87 µM); in assay [6] (setting [12]), 1.2 µg/mL (≈ 4.87 µM).

Regarding `[O-][n+]1nc(NC2CCC2)[n+]([O-])c2cc3c(cc21)CCC3` [Compound 15fd, Cyclobutyl-(5,8-dioxy-2,3-dihydro-1H-5,6,8-triaza-cyclopenta[b]naphthalen-7-yl)-amine], the “MIC, Mtb strain resistant to Streptomycin ATCC 35820” value in assay [1] is 0.31 µg/mL (≈ 1.14 µM). Also, the “MIC, Mtb strain resistant to P-aminosalicyclic acid ATCC 35821” value in assay [2] was 0.62 µg/mL (≈ 2.28 µM). For the same molecule, the “MIC, Mtb strain resistant to Isoniazid ATCC 35822” value in assay [3] came out at 1.2 µg/mL (≈ 4.41 µM). Besides, the “MIC, Mtb strain resistant to Kanamycin ATCC 35827” value in assay [4] was determined as 1.2 µg/mL (≈ 4.41 µM). Moreover, the “MIC, Mtb strain resistant to Ethionamide ATCC 35830” value in assay [5] is 0.62 µg/mL (≈ 2.28 µM). Moreover, in assay [6], the “MIC, Mtb strain resistant to Ethambutol ATCC 35837” value is 0.62 µg/mL (≈ 2.28 µM).

In the case of `CCNc1n[n+]([O-])c2cc(C)c(OC)cc2[n+]1[O-]` [Compound 15ga, 3-(ethylamino)-6-methoxy-7-methylbenzo[e][1,2,4]triazine 1,4-dioxide], the MIC in assay [1] (setting [7]), in assay [2] (setting [8]), in assay [3] (setting [9]), in assay [4] (setting [10]), in assay [5] (setting [11]) and in assay [6] (setting [12]) was 1.2 µg/mL (≈ 4.8 µM) each time.

For the molecule `CC1CCCCN1c1n[n+]([O-])c2cc3c(cc2[n+]1[O-])CCC3` (stereo not shown) [Compound 20w, 3-(2-methylpiperidin-1-yl)-7,8-dihydro-6H-indeno[5,6-e][1,2,4]triazine 1,4-dioxide], the MIC in assay [1] (setting [7]) is 0.31 µg/mL (≈ 1.03 µM); in assay [2] (setting [8]) it was 0.62 µg/mL (≈ 2.06 µM); in assay [5] (setting [11]) it was 0.31 µg/mL (≈ 1.03 µM); in assay [6] (setting [12]), 0.62 µg/mL (≈ 2.06 µM).

For the molecule `CCN(CC)c1n[n+]([O-])c2ccccc2[n+]1[O-]` [SRI-009728], the MIC in assay [1] (setting [13]) came out at 0.31 µg/mL (≈ 1.32 µM); in assay [2] (setting [14]), 0.31 µg/mL (≈ 1.32 µM); in assay [3] (setting [15]), 0.31 µg/mL (≈ 1.32 µM); in assay [4] (setting [16]) it was 0.31 µg/mL (≈ 1.32 µM); in assay [5] (setting [17]) it was 0.16 µg/mL (≈ 0.683 µM); in assay [6] (setting [18]), 0.31 µg/mL (≈ 1.32 µM).

For `CCNc1n[n+]([O-])c2cc3c(cc2[n+]1[O-])CCC3` [SRI-012286], the MIC in assay [1] (setting [13]) turned out to be 0.63 µg/mL (≈ 2.56 µM); in assay [2] (setting [14]) it was 1.25 µg/mL (≈ 5.08 µM); in assay [3] (setting [15]), 2.5 µg/mL (≈ 10.2 µM); in assay [4] (setting [16]), 1.25 µg/mL (≈ 5.08 µM); in assay [5] (setting [17]), 1.25 µg/mL (≈ 5.08 µM); in assay [6] (setting [18]) it was 1.25 µg/mL (≈ 5.08 µM).

On to `CCNc1n[n+]([O-])c2cc3c(cc2[n+]1[O-])CCCC3` [SRI-012496], for which the MIC in assay [1] (setting [13]), in assay [2] (setting [14]), in assay [3] (setting [15]), in assay [4] (setting [16]), in assay [5] (setting [17]) and in assay [6] (setting [18]) was 1.25 µg/mL (≈ 4.8 µM) in each case.

`[O-][n+]1nc(NC2CCC2)[n+]([O-])c2cc3c(cc21)CCCC3` [SRI-012497]: the MIC was 1.25 µg/mL (≈ 4.37 µM) in assay [1] (setting [13]); 1.25 µg/mL (≈ 4.37 µM) in assay [2] (setting [14]); 2.5 µg/mL (≈ 8.73 µM) in assay [3] (setting [15]); 2.5 µg/mL (≈ 8.73 µM) in assay [4] (setting [16]); 1.25 µg/mL (≈ 4.37 µM) in assay [5] (setting [17]); 2.5 µg/mL (≈ 8.73 µM) in assay [6] (setting [18]).

As for `[O-][n+]1nc(NC2CC3CCC2C3)[n+]([O-])c2cc3c(cc21)CCCC3` (stereo not shown) [SRI-012498], the MIC is 1.25 µg/mL (≈ 3.83 µM) in assay [1] (setting [13]); 1.25 µg/mL (≈ 3.83 µM) in assay [2] (setting [14]); 2.5 µg/mL (≈ 7.66 µM) in assay [3] (setting [15]); 1.25 µg/mL (≈ 3.83 µM) in assay [4] (setting [16]); 1.25 µg/mL (≈ 3.83 µM) in assay [5] (setting [17]); 1.25 µg/mL (≈ 3.83 µM) in assay [6] (setting [18]).

Regarding `[O-][n+]1nc(N2CCCC2)[n+]([O-])c2cc3c(cc21)CCC3` [SRI-012530], the MIC in assay [1] (setting [13]) came to 0.16 µg/mL (≈ 0.588 µM); in assay [2] (setting [14]), 0.31 µg/mL (≈ 1.14 µM); in assay [3] (setting [15]), 0.31 µg/mL (≈ 1.14 µM); in assay [4] (setting [16]) it was 0.63 µg/mL (≈ 2.31 µM); in assay [5] (setting [17]), 0.62 µg/mL (≈ 2.28 µM); in assay [6] (setting [18]), 0.62 µg/mL (≈ 2.28 µM).

In the case of `O=S1(=O)CCN(c2n[n+]([O-])c3cc4c(cc3[n+]2[O-])CCC4)CC1` [SRI-012566], the MIC came out at 2.5 µg/mL (≈ 7.43 µM) in assay [1] (setting [13]); 2.5 µg/mL (≈ 7.43 µM) in assay [2] (setting [14]); 2.5 µg/mL (≈ 7.43 µM) in assay [3] (setting [15]); 2.5 µg/mL (≈ 7.43 µM) in assay [4] (setting [16]); 0.62 µg/mL (≈ 1.84 µM) in assay [5] (setting [17]); 2.5 µg/mL (≈ 7.43 µM) in assay [6] (setting [18]).

Take `CS(=O)(=O)N1CCN(c2n[n+]([O-])c3cc4c(cc3[n+]2[O-])CCC4)CC1` [SRI-012568]: the MIC in assay [1] (setting [13]) amounted to 2.5 µg/mL (≈ 6.84 µM); in assay [2] (setting [14]) it was 2.5 µg/mL (≈ 6.84 µM); in assay [3] (setting [15]), 2.5 µg/mL (≈ 6.84 µM); in assay [4] (setting [16]), 2.5 µg/mL (≈ 6.84 µM); in assay [5] (setting [17]), 0.62 µg/mL (≈ 1.7 µM); in assay [6] (setting [18]) it was 2.5 µg/mL (≈ 6.84 µM).

(Values after patent US9663478B2, “Benzotriazine oxides as drugs targeting Mycobacterium tuberculosis” (priority 2011, dated 2017).)
